Test results taken from US8450286B2, “Method for treating cancers having high glucose requirements employing an SGLT2 inhibitor and compositions thereof” (Bristol-Myers Squibb Company, priority 2008, dated 2013).

Assays:
[1] = tested on: subjects with type 2 diabetes; conditions: 14-day multiple ascending dose, compared to placebo, FIG. 2
Text: Results from the 24-hour glucose excretion are shown in FIG. 2 for all subjects in the MB-102003 study. The mean urine glucose is in the darker lines.

healthy subjects = healthy subjects taking 5, 20, 50 or 100 mg; versus known SGLT2 inhibitor GSK 869,682 (50, 100, 200 or 500 mg); FIG. 1
Experimental: The panel at the top of FIG. 1 is from a presentation by GSK in an analyst meeting, showing the amount of glucose excretion/day in healthy subjects taking 50, 100, 200 or 500 mg of GSK 869,682. The panel at the bottom is from study MB-102001, showing the amount of glucose excretion/day in healthy subjects taking 5, 20, 50 or 100 mg of compound Ia.

CCOc1ccc(Cc2cc([C@@H]3O[C@H](CO)[C@@H](O)[C@H](O)[C@H]3O)ccc2Cl)cc1 [compound Ia]
24-hour urine glucose excretion [1]: higher urine glucose excretion | glucosuric effect: loss of calories in the urine (glucose excretion/day) (healthy subjects): significant loss of calories in the urine
